In US7910600B2, “Therapeutic kinase modulators” (Cylene Pharmaceuticals, Inc., priority 2007, dated 2011):

Tests used:
recombinant human CK2 = target: T1, recombinant human CK2 (Homo sapiens, UniProt P68400); assay: Cell-free CK2 assay; assay type: biochemical; details: for inhibition at 0.5 µM: read-out: CK2: % inh 500 nM
T1 construct: purchased Upstate
Protocol: Modulatory activity of compounds described herein is assessed in vitro in cell-free CK2 assays. These assays are described hereafter.
Test compounds in aqueous solution are added at a volume of 10 microliters, to a reaction mixture comprising 10 microliters Assay Dilution Buffer (ADB; 20mM MOPS, pH 7.2, 25 mM beta-glycerolphosphate, 5 mM EGTA, 1 mM sodium orthovanadate and 1 mM dithiothreitol), 10 microliters of substrate peptide (RRRDDDSDDD (SEQ ID NO:4), dissolved in ADB at a concentration of 1 mM), 10 microliters of recombinant human CK2 (25 ng dissolved in ADB; Upstate). Reactions are initiated by the addition of 10 microliters of ATP Solution (90% 75 mM MgC12, 75 micromolar ATP dissolved in ADB; 10% [γ-^33P]ATP (stock 1 mCi/100 μl; 3000 Ci/mmol (Perkin Elmer) and maintained for 10 minutes at 30 degrees C. The reactions are quenched with 100 microliters of 0.75% phosphoric acid, then transferred to and filtered through a phosphocellulose filter plate (Millipore). After washing each well 5 times with 0.75% phosphoric acid, the plate is dried under vacuum for 5 min and, following the addition of 15 ul of scintillation fluid to each well, the residual radioactivity is measured using a Wallac […].

[1] = system: HCT-116 human colorectal carcinoma cells; assay: Cell proliferation assay (Alamar Blue), HCT-116; assay type: cell-based; details: HCT-116 cell line
Protocol: (§1) A representative cell-proliferation assay protocol using Alamar Blue dye (stored at 4° C., use 20 ul per well) is described hereafter.
(§2) 96-Well Plate Setup and Compound Treatment
(§3) • a. Split and trypsinize cells. • b. Count cells using hemocytometer. • c. Plate 4,000-5,000 cells per well in 100 μl of medium and seed into a 96-well plate according to the following plate layout. Add cell culture medium only to wells B10 to B12. Wells B1 to B9 have cells but no compound added.
(§4) • d. Add 100 μl of 2× drug dilution to each well in a concentration shown in the plate layout above. At the same time, add 100 μl of media into the control wells (wells B10 to B12). Total volume is 200 μl/well. • e. Incubate four (4) days at 37° C., 5% CO2 in a humidified incubator. • f. Add 20 μl Alamar Blue reagent to each well. • g. Incubate for four (4) hours at 37° C., 5% CO2 in a humidified incubator. • h. Record fluorescence at an excitation wavelength of 544 nm and emission wavelength of 590 nm using a microplate reader.
(§5) In the assays, cells are cultured with a test compound for approximately four days, the dye is then added to the cells and fluorescence of […] dye is detected after approximately four hours. Different types of cells can be utilized in the assays (e.g., HCT-116 human colorectal carcinoma cells, PC-3 human prostatic cancer cells and MiaPaca human pancreatic carcinoma cells).

[2] = system: MiaPaca human pancreatic carcinoma cells; assay: Cell proliferation assay (Alamar Blue), MiaPaCa; assay type: cell-based; details: MIA PaCa-2, MiaPaCa cell line
Protocol: as §1, §2, §3, §4, §5

[3] = system: PC-3 human prostatic cancer cells; assay: Cell proliferation assay (Alamar Blue), PC3; assay type: cell-based; details: PC3 cell line
Protocol: as §1, §2, §3, §4, §5

K562 = assay: Cell proliferation assay (Alamar Blue), K562; assay type: cell-based; details: Homo sapiens; K562 cell line
Protocol: as §1, §2, §3, §4, §5

MV-4-11 = assay: Cell proliferation assay (Alamar Blue), MV-4-11; assay type: cell-based; details: Homo sapiens, MV4-11; MV-4-11 cell line
Protocol: as §1, §2, §3, §4, §5

BxPC3 = assay: Cell proliferation assay (Alamar Blue), BxPC3; assay type: cell-based; details: Homo sapiens, BXPC-3; BxPC3 cell line; read-out: Bx-PC3
Protocol: as §1, §2, §3, §4, §5

MDA-MB231 = assay: Cell proliferation assay (Alamar Blue), MDA-MB231; assay type: cell-based; details: Homo sapiens, MDA-MB-231; MDA-MB231 cell line
Protocol: as §1, §2, §3, §4, §5

T1 sequence (P68400 whole entry): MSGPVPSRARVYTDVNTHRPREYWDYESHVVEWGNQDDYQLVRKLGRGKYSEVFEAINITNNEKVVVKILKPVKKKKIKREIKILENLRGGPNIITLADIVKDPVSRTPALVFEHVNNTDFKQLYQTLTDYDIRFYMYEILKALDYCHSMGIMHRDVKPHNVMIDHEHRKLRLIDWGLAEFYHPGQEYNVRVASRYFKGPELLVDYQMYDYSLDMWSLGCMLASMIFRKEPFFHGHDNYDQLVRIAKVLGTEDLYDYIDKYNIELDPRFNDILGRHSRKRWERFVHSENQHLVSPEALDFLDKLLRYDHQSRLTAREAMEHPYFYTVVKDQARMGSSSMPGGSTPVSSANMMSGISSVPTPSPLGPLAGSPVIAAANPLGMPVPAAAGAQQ
T1 sequence (P67870 whole entry partner): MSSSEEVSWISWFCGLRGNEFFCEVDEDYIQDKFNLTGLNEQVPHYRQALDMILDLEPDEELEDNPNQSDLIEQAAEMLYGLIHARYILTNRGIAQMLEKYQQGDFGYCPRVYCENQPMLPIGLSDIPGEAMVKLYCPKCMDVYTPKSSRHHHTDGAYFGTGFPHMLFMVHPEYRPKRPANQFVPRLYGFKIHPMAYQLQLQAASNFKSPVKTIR

Structure (SMILES)	IC50 (recombinant human CK2)	inhibition at 0.5 µM (recombinant human CK2)	IC50 [1]	IC50 [2]	IC50 [3]	IC50 (K562)	IC50 (MV-4-11)	IC50 (BxPC3)	IC50 (MDA-MB231)
N#Cc1cccc(-c2nc3cc(C(=O)O)ccc3c3cnccc23)c1	0.045 µM	98%	> 10 µM	> 10 µM	> 10 µM				
Fc1ccc2c(c1)nc(-c1cccc(OC(F)(F)F)c1)c1ccncc12		-35%							
Clc1cccc(-c2nc3ccccc3c3cnccc23)c1		-17%	> 10 µM	> 10 µM	> 10 µM	> 10 µM			
CCCNC(=O)c1ccc2c(c1)nc(-c1ccccc1)c1ccncc12		-26%	> 10 µM			> 10 µM	> 10 µM		
CC(=O)Nc1cccc(-c2nc3cc(C(=O)NCCN4CCCC4)ccc3c3cnccc23)c1	0.144 µM	89%	> 10 µM						
COC(=O)c1ccc2c(c1)nc(-c1c(C)noc1C)c1ccncc12		-5%							
Nc1cccc(-c2nc3cc(C(=O)NN4CCOCC4)ccc3c3cnccc23)c1		-28%	> 10 µM						
COC(=O)c1ccc2c(c1)nc(-c1ccccc1)c1nc(SC)ncc12 [methyl 3-(methylthio)-5-phenylpyrimido[4,5-c]quinoline-8-carboxylate]		-26%	2 µM						
CC(=O)Nc1cccc(-c2nc3cc(C(=O)NN4CCOCC4)ccc3c3cnccc23)c1		19%	> 10 µM						
CC(=O)Nc1cccc(-c2nc3cc(C(=O)NCC4CCCCN4C)ccc3c3cnccc23)c1 (centres unmarked)		40%	> 10 µM						
O=C(O)c1ccc2c(c1)nc(-c1ccccc1)c1ccncc12 [5-phenylbenzo[c][2,6]naphthyridine-8-carboxylic acid]	0.013 µM	97%	> 10 µM	> 10 µM		> 10 µM	8.1 µM	> 10 µM	> 10 µM
Cn1cc(-c2nc3cc(C(=O)O)ccc3c3cnccc23)cn1	0.004 µM	98%	> 10 µM	> 10 µM		> 10 µM	> 10 µM	> 10 µM	> 10 µM
CC(=O)Nc1cccc(-c2nc3cc(C(=O)N4CCCN(C)CC4)ccc3c3cnccc23)c1		30%	> 10 µM						
CN1CCCCC1CNC(=O)c1ccc2c(c1)nc(-c1cccc(N)c1)c1ccncc12 (centres unmarked)		9%	> 10 µM	> 10 µM	> 10 µM	> 10 µM	> 10 µM		
COc1cccc(F)c1-c1nc2cc(C(=O)O)ccc2c2cnccc12		68%	> 10 µM	> 10 µM	> 10 µM	> 10 µM			
Clc1ccc(-c2nc3ccccc3c3cnccc23)cc1		-5%	> 10 µM	> 10 µM	> 10 µM	> 10 µM			
CN(C)C(=O)c1ccc2c(c1)nc(-c1cnn(C)c1)c1ccncc12		-13%	> 10 µM			> 10 µM	> 10 µM		
O=C(O)c1ccc2c(c1)nc(-c1ccccc1OC(F)(F)F)c1ccncc12		23%	> 10 µM	> 10 µM	> 10 µM				
Cc1ccccc1-c1nc2ccccc2c2cnccc12		-15%	> 10 µM	> 10 µM	> 10 µM	> 10 µM			
COC(=O)c1ccc2c(c1)nc(-c1cnn(C)c1)c1ccncc12 [Methyl 5-(1-methyl-1H-pyrazol-4-yl)benzo[c][2,6]naphthyridine-8-carboxylate]		-49%	2.5 µM			> 10 µM	> 10 µM		
Nc1cccc(-c2nc3cc(C(=O)O)ccc3c3cnccc23)c1	0.027 µM	97%	> 10 µM	> 10 µM			> 10 µM	> 10 µM	> 10 µM
CCCNC(=O)c1ccc2c(c1)nc(-c1cnn(C)c1)c1ccncc12		-21%	> 10 µM			> 10 µM	> 10 µM		
Cn1cc(-c2nc3cc(C(=O)NC4CC4)ccc3c3cnccc23)cn1		-15%	1 µM				2.7 µM		

Structure (SMILES)	IC50 (recombinant human CK2)	inhibition at 0.5 µM (recombinant human CK2)	IC50 [1]	IC50 [2]	IC50 [3]	IC50 (K562)	IC50 (MV-4-11)	IC50 (BxPC3)	IC50 (MDA-MB231)
Cn1cc(-c2nc3cc(C(N)=O)ccc3c3cnccc23)cn1		7%	> 10 µM			> 10 µM	2.9 µM		
Fc1ccc2c(c1)nc(-c1ccccc1)c1ccncc12		-51%							
CC(=O)Nc1cccc(-c2nc3cc(C(=O)N4CCN(C)CC4)ccc3c3cnccc23)c1		6%	> 10 µM						
Cc1noc(C)c1-c1nc2cc(C(=O)O)ccc2c2cnccc12		52%							
NC(=O)c1ccc2c(c1)nc(-c1ccccc1)c1ccncc12		27%	> 10 µM			> 10 µM	1.4 µM		
O=C(O)c1ccc2c(c1)nc(-c1ccc(F)cc1)c1ccncc12	0.033 µM	98%	> 10 µM	> 30 µM	> 10 µM	1 µM	7 µM		
CC(=O)Nc1cccc(-c2nc3cc(C(=O)O)ccc3c3cnccc23)c1	0.042 µM	93%	> 10 µM	> 10 µM		> 10 µM	> 10 µM	> 10 µM	> 10 µM
Nc1cccc(-c2nc3cc(C(=O)NCCN4CCCC4)ccc3c3cnccc23)c1		56%	> 10 µM						
CN(C)C(=O)c1ccc2c(c1)nc(-c1ccccc1)c1ccncc12		0%	> 10 µM			> 10 µM	> 10 µM		
COC(=O)c1ccc2c(c1)nc(-c1ccccc1)c1ccncc12 [Methyl 5-phenylbenzo[c][2,6]naphthyridine-8-carboxylate]		-34%	2.9 µM			> 10 µM	> 10 µM		
CN1CCN(C(=O)c2ccc3c(c2)nc(-c2ccccc2)c2ccncc23)CC1		57%	> 10 µM			> 10 µM	> 10 µM		
COC(=O)c1ccc2c(c1)nc(-c1cnn(C)c1)c1nc(S(C)(=O)=O)ncc12		11%	0.9 µM						
CN1CCCN(C(=O)c2ccc3c(c2)nc(-c2ccccc2)c2ccncc23)CC1		-15%	> 10 µM			> 10 µM	> 10 µM		
COC(=O)c1ccc2c(c1)nc(-c1cscc1C)c1ccncc12		4%							
Cc1ccccc1-c1nc2cc(C(=O)O)ccc2c2cnccc12		76%	> 10 µM	> 10 µM	> 10 µM	> 10 µM			
Fc1ccc2c(c1)nc(-c1ccncc1)c1ccncc12		-37%							
Cc1cnc(CNC(=O)c2ccc3c(c2)nc(-c2cccc(N)c2)c2ccncc23)cn1		-24%	> 10 µM						
CN1CCCN(C(=O)c2ccc3c(c2)nc(-c2cccc(N)c2)c2ccncc23)CC1		-21%	> 10 µM						
O=C(O)c1ccc2c(c1)nc(-c1ccc(Cl)s1)c1ccncc12		99%							
O=C(NC1CC1)c1ccc2c(c1)nc(-c1ccccc1)c1ccncc12		-9%	> 10 µM			> 10 µM	> 10 µM		
CC(=O)Nc1cccc(-c2nc3cc(C(=O)NCc4cnc(C)cn4)ccc3c3cnccc23)c1		-6%	> 10 µM						
Cc1cscc1-c1nc2cc(C(=O)O)ccc2c2cnccc12		87%							
